From patent US20150328109A1, “DERMAL COMPOSITIONS CONTAINING UNNATURAL HYGROSCOPIC AMINO ACIDS” (MEDPHARM LIMITED, priority 2012, published 2015)

Test: In vitro permeation of Acyclovir through epidermal membrane in Franz type diffusion cells after amino acid pre-treatment
Assay type: in vitro ADME, Human
Settings: maximal enhancement of the drug's permeation by amino acid pre-treatment
Protocol: Acyclovir (ACV), metronidazole and diclofenac diethylamine (DDEA) were analysed using HPLC, using of a Waters Alliance Separations Module and Waters detector. The temperature of the column and samples were maintained at 45±2° C. and 5.0±2° C., respectively. A Kinetix™ C-18 (Phenomenex, USA) column (150 mm×4.6 mm 5 μm particle size) with a guard column (Phenomenex USA, C-18 4.0×3.0 mm) was employed as the stationary phase. The mobile phase was three part; mobile phase A, water; mobile phase B, methanol; and mobile phase C, 10 mM ammonium phosphate buffer pH 2.5. The mobile phase was run using a gradient flow (Table 2) with a flow rate of 0.8 mL/min. Samples were run for 12 minutes with an injection volume of 10 μL. Acyclovir, metronidazole and DDEA were processed at a wavelength of 276 nm, with approximate retention times of 4.7, 6.5, and 8.7 min, respectively. Calibration curves were constructed from a series of standards prepared by serial dilution in conjunction with separately prepared quality controls. […] Data were recorded and analysed using Empower Pro^3 Software. […]
Three experiments were performed, one for each API (Acyclovir, metronidazole and DDEA). […] The integrity of the epidermal membrane was assessed using electrical resistance to ensure the epidermal membrane was intact. […] Samples were analysed using HPLC and the level of each API that had permeated was quantified.

Nc1nc2c(ncn2COCCO)c(=O)[nH]1 [ACV, Acyclovir]
ER (drug absorption enhancement factor): 12
